# Measurements reported in patent publication US20260306640A1, “TECHNOLOGIES TARGETING CELL STATES” (Auron Therapeutics, Inc., priority 2023, published 2026).
# Like-named read-outs stand apart in the source and are kept apart here.
# Assays:
# NCI-H1048 tumors = assay: Tumor growth inhibition in nude Balb/c mice bearing NCI-H1048 tumors; assay type: in vivo; details: 30 mg/kg, once per week i.p.; average tumor volumes from 6 mice; FIG. 1 (D)
# Experimental: (§1) FIG. 1. Provided compounds can provide various activities including inhibiting tumor growth in vivo. (A): Provided compounds can inhibit tumor growth in vivo. Nude Balb/c mice were inoculated with NCI-H1048 cells in Matrigel. Tumors were allowed to grow up to about 200 mm^3 and mice were then randomized into two groups. Mice were dosed intraperitoneally (i.p.) once per week with vehicle or 30 mg/kg compound 22. Tumor size was measured every three to four days and mice were sacrificed once vehicle tumors reached 2000 mm^3. Error bar is SEM. Dosing started at day 17 post tumor inoculation. (B): Provided technologies can reduce KAT2A and KAT2B levels and histone acetylation levels. […] Vehicle is DMSO. […] Cell count data relative to DMSO control after 8 days of treatment with compound 22 are presented as examples to confirm inhibition. GI50=6 nM. (D): Provided technologies can inhibit tumor growth in vivo. Nude balb/c mice inoculated with H1048 tumors were dosed intraperitoneally once per week (qw i.p.) with vehicle (HbCD) or compound 22. Average tumor volumes+/−SEM from 6 mice are represented. […] See also (A). […] Certain body weights relative to starting weight are presented as examples to confirm tolerability and safety. (F): Provided technologies can reduce KAT2A and KAT2B levels and histone acetylation levels in tumor in vivo. […]
# histone acetylation [1] = assay: Western blot of histone acetylation in NCI-H1048 cells, 24 h; assay type: cell-based; details: various concentrations, FIG. 1 (B)
# Experimental: as §1
# histone acetylation [2] = assay: Western blot of histone acetylation in NCI-H1048 tumors, 168 hours post last dose; assay type: in vivo; details: FIG. 1 (F)
# Experimental: as §1
# histone acetylation [3] = assay: Western blot of histone acetylation in acute myeloid leukemia MOLM-13 cells, 48 h; assay type: cell-based; details: FIG. 2 (A)
# Experimental: FIG. 2. Provided compounds can provide various activities. (A): Provided technologies can reduce KAT2A and KAT2B levels and histone acetylation levels. […] Cell count data after 8 days of treatment with compound 22 relative to DMSO control are presented as examples to confirm inhibition. […] (C): Provided technologies can modulate cell states and induce differentiation. […] EC50=0.3 nM.
# histone acetylation [4] = assay: Western blot of histone acetylation in neuroendocrine prostate cancer LASCPC-01 cells, 24 hours; assay type: cell-based; details: FIG. 3 (A)
# Experimental: (§2) FIG. 3. Provided compounds can provide various activities. (A): Provided technologies can reduce KAT2A and KAT2B levels and histone acetylation levels. […] Cell viability (Cell Titer Glo) data relative to DMSO control after 7 days of treatment with compound 22 are presented as examples to confirm inhibition. GI50=5 nM. (C): Provided technologies can modulate cell states and induce differentiation. […] (D): Provided technologies can reduce KAT2A and KAT2B levels and histone acetylation levels including in neuroendocrine prostate cancer primary patient organoid. […] Concentrations are nM. […] Cell viability data relative to DMSO control after 21 days of treatment with compound 22 are presented as examples to confirm inhibition. GI50=3 nM. (F): Provided technologies can modulate cell states and induce differentiation.
# microglial GSEA = assay: Microglial GSEA in NEPC primary patient organoid; assay type: cell-based; details: both epithelial and neural components; FIG. 3 (F)
# Experimental: as §2
# [5] = test system: small cell lung cancer cells, e.g., NCI-H1048 cells; assay: Differentiation GSEA signatures from RNA-Seq, NCI-H1048; assay type: cell-based, human; details: NCI-H1048, FIG. 1
# Experimental: In some embodiments, GSEA signatures are utilized for assessing cell states, differentiation, etc. In some assessments, differentiation GSEA signatures, e.g., from RNA-Seq was performed. A useful protocol is described herein as an example. In some assessments, LASCPC-01 cells, NEPC organoid cell pellets, or NCI-H1048 tumor pieces were flash frozen upon harvest and stored at −80° C. RNA was isolated, mRNA library was prepared (poly A enrichment) and sequencing was run. Reads were aligned to reference v38 using Kallis to generate gene count matrices for each sample. The gene count matrix was the input to the ML pipelines that generate normal atlas scores and cell state classification. It was also input to differential expression analysis using Edger in R. The output of differential expression was input to gene set enrichment analysis (GSEA) to define gene sets that were most shifted by treatment. For defining specific epithelial differentiation endpoints to generate the solid tumor differentiation box plots, cell state gene sets resulting from GSEA are consolidated by cell state to define a consensus set of genes that define epithelial differentiation. Other suitable technologies may also utilized in accordance with the present disclosure.
# KAT2B [6] = target: T1, KAT2B (Homo sapiens, UniProt Q92831); assay: Western blot of KAT2B level in NCI-H1048 cells, 24 h; assay type: cell-based; set-up: degrader, Western blot; details: various concentrations, FIG. 1 (B)
# T1 sequence (Q92831 whole entry): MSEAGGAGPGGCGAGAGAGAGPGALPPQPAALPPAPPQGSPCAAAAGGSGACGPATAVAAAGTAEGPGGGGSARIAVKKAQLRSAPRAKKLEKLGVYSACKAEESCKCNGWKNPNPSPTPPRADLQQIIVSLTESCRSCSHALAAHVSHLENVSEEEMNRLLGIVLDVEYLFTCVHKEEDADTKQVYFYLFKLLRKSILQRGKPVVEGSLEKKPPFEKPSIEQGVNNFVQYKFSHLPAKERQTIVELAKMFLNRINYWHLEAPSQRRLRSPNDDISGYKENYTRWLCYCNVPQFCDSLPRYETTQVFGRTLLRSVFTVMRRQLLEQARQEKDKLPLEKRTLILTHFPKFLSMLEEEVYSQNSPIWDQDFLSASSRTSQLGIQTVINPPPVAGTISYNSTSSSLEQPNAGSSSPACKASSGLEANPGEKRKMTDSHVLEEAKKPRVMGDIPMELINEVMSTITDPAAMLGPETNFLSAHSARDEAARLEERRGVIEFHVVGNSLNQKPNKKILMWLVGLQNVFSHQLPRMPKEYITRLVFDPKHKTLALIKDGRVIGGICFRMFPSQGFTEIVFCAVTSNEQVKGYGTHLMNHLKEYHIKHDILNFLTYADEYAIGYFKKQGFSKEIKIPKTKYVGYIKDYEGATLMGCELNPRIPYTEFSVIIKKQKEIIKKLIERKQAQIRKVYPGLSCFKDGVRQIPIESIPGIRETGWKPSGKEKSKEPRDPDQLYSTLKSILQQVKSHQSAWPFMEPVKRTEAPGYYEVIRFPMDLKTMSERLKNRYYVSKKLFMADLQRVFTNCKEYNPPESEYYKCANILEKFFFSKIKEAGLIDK
# Experimental: as §1
# KAT2B [7] = target: T1, KAT2B; assay: Western blot of KAT2B in NCI-H1048 tumors, 168 hours post last dose; assay type: in vivo; set-up: degrader, Western blot; details: FIG. 1 (F)
# Experimental: as §1
# KAT2B [8] = target: T1, KAT2B; assay: KAT2B degradation, Western Blot (Jess), NCI-H1048 cells; assay type: cell-based; set-up: degrader, Western blot (Jess)
# How it was run: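 DC50 came from protein loss relative to DMSO, measured by Jess capillary immunoblot of RIPA lysates with chemiluminescence read-out. Before lysis, NCI-H1048 cells in 5% FBS HITES medium were exposed to compound for 24 h at 37° C.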
smiles,measurement,setting,value
"CN1C[C@H](Nc2cnn(C)c(=O)c2Br)C[C@H](c2ccc(C(=O)N3CCC(CN4CCN(c5ccc6c(c5)CN(C5CCC(=O)NC5=O)C6=O)CC4)CC3)cc2)C1 (stereo partly drawn) [Compound 22, 3-(5-(4-((1-(4-((3R,5R)-5-((5-bromo-1-methyl-6-oxo-1,6-dihydropyridazin-4-yl)amino)-1-methylpiperidin-3-yl)benzoyl)piperidin-4-yl)methyl)piperazin-1-yl)-1-oxoisoindolin-2-yl)piperidine-2,6-dione]",tumor growth inhibition,NCI-H1048 tumors,70%
same,reduction of histone acetylation level,histone acetylation [1],confirm such reduction
same,reduction of histone acetylation in tumor,histone acetylation [2],significant reduction
same,reduction of histone acetylation level,histone acetylation [3],confirm such reduction
same,reduction of histone acetylation level,histone acetylation [4],confirm such reduction
same,microglial GSEA,microglial GSEA,significant upregulation
same,induction of differentiation,[5],"induce differentiation (e.g., epithelial, neural, and/or microglial)"
same,reduction of KAT2B level,KAT2B [6],confirm such reduction
same,reduction of KAT2B in tumor,KAT2B [7],significant reduction
same,EC90,"KAT2B [8]; 24 h, NCI-H1048, KAT2B, read-out: DC90 (the source's name)",1.44 nM
same,DC50,"KAT2B [8]; NCI-H1048, KAT2B, read-out: DC50",0.04 nM
same,KAT2B levels,"KAT2B [8]; NCI-H1048 cells, FIG. 1",potently reduce KAT2A and KAT2B levels
same,DC50,"KAT2B [8]; NCI-H1048 cells, KAT2B, 24 h, Western Blot, vs DMSO, read-out: KAT2B NCI-H1048 DC50",< 1 nM
